Experimental data taken from patent US9717241B2, “Increased tolerance of DHT-enabled plants to auxinic herbicides resulting from moiety differences in auxinic herbicide molecular structures” (priority 2011, dated 2017).

Key:
ACNHI = assay: Weed control in AAD-1 cotton field plots; type: in vivo; details: 1120 g ae/ha, 2 WAA (maximum control), n = 36 plots
Description: (§1) An experiment to compare the efficacies of 2,4-DB and 2,4-D to control weeds in AAD-1 cotton was conducted at nine field sites located near Greenville, Miss. (3 locations); Chula, Ga.; Macon County, Ga.; Attapulgus, Ga.; Memphis, Tenn.; Newport, Ark.; and Fresno, Calif. The experimental design was four replications per site with treatment plots in randomized complete blocks. Each plot had AAD-1-cotton plants in two rows that were 20 feet in length. Weed and cotton plants were targeted at two to six inches in height for a single-application treatment. Treatments consisted of Butyrac 200 (2,4-DB) and Weedar 64 (2,4-D) applied to plots at 560, 840, and 1120 g ae/ha. Weed species were visually assessed once per week for three weeks after herbicide application for the percentage plants (0-100%, where 0 represents no activity or a control and 100% represents death of the target plant) killed or showing severe herbicide-related injury.
(§2) For nearly all targeted species and for each week of measurement, greater levels of control were obtained with increasing application rates of 2,4-DB or 2,4-D, with the greatest control from 1120 g ae/ha. Therefore, based on efficacy, 1120 g ae/ha is the preferred application rate of the three rates tested to control weeds in AAD-1 cotton. At 1120 g ae/ha, control was classified as either ≦80%, >80%, or >90% of weed plants killed or seriously injured.

SIDSP = assay: Weed control in AAD-1 cotton field plots; type: in vivo; details: 1120 g ae/ha, 3 WAA (maximum control), n = 36 plots
Description: as §1, §2

RCHSC = assay: Weed control in AAD-1 cotton field plots; type: in vivo; details: 1120 g ae/ha, 3 WAA (maximum control), n = 36 plots
Description: as §1, §2

AMARE = assay: Weed control in AAD-1 cotton field plots; type: in vivo; details: 1120 g ae/ha, 3 WAA (maximum control), n = 36 plots
Description: as §1, §2

SEBEX = assay: Weed control in AAD-1 cotton field plots; type: in vivo; details: 1120 g ae/ha, 3 WAA (maximum control), n = 36 plots
Description: as §1, §2

ACCOS = assay: Weed control in AAD-1 cotton field plots; type: in vivo; details: 1120 g ae/ha, 3 WAA (maximum control), n = 36 plots
Description: as §1, §2

IAQTA = assay: Weed control in AAD-1 cotton field plots; type: in vivo; details: 1120 g ae/ha, 2 WAA (maximum control), n = 36 plots
Description: as §1, §2

IPOSS = assay: Weed control in AAD-1 cotton field plots; type: in vivo; details: 1120 g ae/ha, 3 WAA (maximum control), n = 36 plots
Description: as §1, §2

SOLNI = assay: Weed control in AAD-1 cotton field plots; type: in vivo; details: 1120 g ae/ha, 3 WAA (maximum control), n = 36 plots
Description: as §1, §2

CASOB = assay: Weed control in AAD-1 cotton field plots; type: in vivo; details: 1120 g ae/ha, 3 WAA (maximum control), n = 36 plots
Description: as §1, §2

IPOHG = assay: Weed control in AAD-1 cotton field plots; type: in vivo; details: 1120 g ae/ha, 2 WAA (maximum control), n = 36 plots
Description: as §1, §2

AAD-1 cotton [1] = assay: Crop injury on AAD-1 cotton, field experiment at four locations; type: in vivo, Cotton (Gossypium spp.); details: epinastic foliage per plot, n = 16 plots
Description: (§3) By “injury” it is meant the percentage of foliage that is epinastic (has leaf droop, leaf rolling, petiole curvature) as visually assessed by one skilled in the art. The reduced injury from 2,4-DB relative to 2,4-D is observable within minutes after application of these herbicides and continues to be observable for an extended time period thereafter, such as from 2 hrs after application to 30 days after application, including 3 hours after application to 19 days after application and further including 6 hours after application to 24 hours after application.
(§4) To evaluate the tolerance of AAD-1-cotton plants to the effects of 2,4-DB and 2,4-D herbicide compounds, the herbicides Butyrac 200 (2,4-DB) and Weedar 64 (2,4-D) were applied individually by broadcast spraying over AAD-1-cotton plants in two field experiments.
One experiment was conducted at four field locations near Greenville, Miss.; Brinson, Ga.; Memphis, Tenn.; and Fresno, Calif. The experimental design was four replications per site with treatment plots in randomized complete blocks. Each plot had AAD-1-cotton plants in two rows that were 20 feet in length. Cotton plants were targeted at two to four inches in height for single-application treatment. Treatments consisted of Butyrac 200 (2,4-DB) applied at 560, 840, 1120, 1680, and 2240 g ae/ha; and Weedar 64 (2,4-D) applied at 840 and 1120 g ae/ha. AAD-1-cotton plants were visually assessed for the percentage of foliage showing herbicide-related injury one day after application.

AAD-1 cotton [2] = assay: Crop injury over time on AAD-1 cotton, field experiment near Tifton, Ga.; type: in vivo, Cotton (Gossypium spp.); details: n = 3 plots
Description: as §3, §4
Another experiment was conducted at one field location at the University of Georgia Ponder Farm, near Tifton, Ga. The experimental design was three replications with plots in randomized complete blocks. Each plot had AAD-1-cotton plants in one row that was 25 feet in length. Cotton plants were targeted at […] in height (6-leaf stage) for single-application treatment. Treatments consisted of Butyrac 200 (2,4-DB) applied at 280, 560, 1120, and 2240 g ae ha; and Weedar 64 (2,4-D) applied at 560 and 1120 g ae/ha. AAD-1-cotton plants were visually assessed for the percentage of foliage showing herbicide-related injury on days—0, 1, 2, 19, and 45 after application.

AAD-12 cotton = assay: Crop injury over time on AAD-12 cotton, greenhouse experiment; type: in vivo, Cotton (Gossypium spp.); details: n = 4 plants
Description: as §3
To evaluate the tolerance of AAD-12-cotton plants to the effects of 2,4-DB and 2,4-D herbicide compounds, the herbicides DB Straight (2,4-DB) and Weedar 64 (2,4-D) were applied individually by spraying over AAD-12-cotton plants in one greenhouse experiment. The four treatments consisted of two application rates, 1120 and 2240 g ae/ha, for each of the two herbicides. The experimental design was four replications of single AAD-12-cotton plants per treatment. The plants were grown in pots. Treatments were not randomized. Plants were at the 3- to 4-leaf stage when sprayed. The sprayed AAD-12-cotton plants were visually assessed for the percentage of foliage showing herbicide-related injury on days-0, 1, 2, 4, and 12 after application.

AMASS = assay: Weed control in AAD-1 cotton field plots; type: in vivo, All Amaranthus species excluding AMAPA; details: 1120 g ae/ha, 3 WAA (maximum control), n = 36 plots
Description: as §1, §2

AMAPA = assay: Weed control in AAD-1 cotton field plots; type: in vivo, Amaranthus palmeri; details: 1120 g ae/ha, 3 WAA (maximum control), n = 36 plots
Description: as §1, §2

O=C(O)CCCOc1ccc(Cl)cc1Cl [2,4-DB, 4-(2,4-dichlorophenoxy) butyric acid]
Percentage Control of Target Weeds (ACNHI): 99%
Percentage Control of Target Weeds (SIDSP): 84%
Percentage Control of Target Weeds (RCHSC): 99%
Percentage Control of Target Weeds (AMARE): 89%
Percentage Control of Target Weeds (SEBEX): 89%
Percentage Control of Target Weeds (ACCOS): 88%
Percentage Control of Target Weeds (IAQTA): 99%
Percentage Control of Target Weeds (IPOSS): 99%
Percentage Control of Target Weeds (SOLNI): 89%
Percentage Control of Target Weeds (CASOB): 100%
Percentage Control of Target Weeds (IPOHG): 100%
Mean Injury 1 DAA, Injury (%) (AAD-1 cotton [1]; 560 g ae/ha post-emergence): 2.3%
Mean Injury 1 DAA, Injury (%) (AAD-1 cotton [1]; 840 g ae/ha post-emergence): 4.1%
Mean Injury 1 DAA, Injury (%) (AAD-1 cotton [1]; 1120 g ae/ha post-emergence): 2.8%
Mean Injury 1 DAA, Injury (%) (AAD-1 cotton [1]; 1680 g ae/ha post-emergence): 4.5%
Mean Injury 1 DAA, Injury (%) (AAD-1 cotton [1]; 2240 g ae/ha post-emergence): 6.3%
Mean Injury (%) (AAD-1 cotton [2]; 280 g ae/ha, 0 DAA): 1.7 a %
Mean Injury (%) (AAD-1 cotton [2]; 280 g ae/ha, 1 DAA): 0.7 a %
Mean Injury (%) (AAD-1 cotton [2]; 280 g ae/ha, 2 DAA): 1.3 ab %
Mean Injury (%) (AAD-1 cotton [2]; 280 g ae/ha, 19 DAA): 0.0 a %
Mean Injury (%) (AAD-1 cotton [2]; 280 g ae/ha, 45 DAA): 0.0 a %
Mean Injury (%) (AAD-1 cotton [2]; 560 g ae/ha, 0 DAA): 2.7 a %
Mean Injury (%) (AAD-1 cotton [2]; 560 g ae/ha, 1 DAA): 0.0 a %
Mean Injury (%) (AAD-1 cotton [2]; 560 g ae/ha, 2 DAA): 0.7 a %
Mean Injury (%) (AAD-1 cotton [2]; 560 g ae/ha, 19 DAA): 0.7 a %
Mean Injury (%) (AAD-1 cotton [2]; 560 g ae/ha, 45 DAA): 0.0 a %
Mean Injury (%) (AAD-1 cotton [2]; 1120 g ae/ha, 0 DAA): 5.0 ab %
Mean Injury (%) (AAD-1 cotton [2]; 1120 g ae/ha, 1 DAA): 0.7 a %
Mean Injury (%) (AAD-1 cotton [2]; 1120 g ae/ha, 2 DAA): 1.3 ab %
Mean Injury (%) (AAD-1 cotton [2]; 1120 g ae/ha, 19 DAA): 0.0 a %
Mean Injury (%) (AAD-1 cotton [2]; 1120 g ae/ha, 45 DAA): 1.7 a %
Mean Injury (%) (AAD-1 cotton [2]; 2240 g ae/ha, 0 DAA): 9.3 b %
Mean Injury (%) (AAD-1 cotton [2]; 2240 g ae/ha, 1 DAA): 2.0 a %
Mean Injury (%) (AAD-1 cotton [2]; 2240 g ae/ha, 2 DAA): 3.3 abc %
Mean Injury (%) (AAD-1 cotton [2]; 2240 g ae/ha, 19 DAA): 0.7 a %
Mean Injury (%) (AAD-1 cotton [2]; 2240 g ae/ha, 45 DAA): 0.0 a %
Mean Injury (%) (AAD-12 cotton; 1120 g ae/ha, 0 DAA): 0.0 a %
Mean Injury (%) (AAD-12 cotton; 1120 g ae/ha, 1 DAA): 1.8 ab %
Mean Injury (%) (AAD-12 cotton; 1120 g ae/ha, 2 DAA): 0.0 a %
Mean Injury (%) (AAD-12 cotton; 1120 g ae/ha, 4 DAA): 1.0 b %
Mean Injury (%) (AAD-12 cotton; 1120 g ae/ha, 12 DAA): 1.0 a %
Mean Injury (%) (AAD-12 cotton; 2240 g ae/ha, 0 DAA): 0.0 a %
Mean Injury (%) (AAD-12 cotton; 2240 g ae/ha, 1 DAA): 0.0 b %
Mean Injury (%) (AAD-12 cotton; 2240 g ae/ha, 2 DAA): 0.0 a %
Mean Injury (%) (AAD-12 cotton; 2240 g ae/ha, 4 DAA): 0.5 b %
Mean Injury (%) (AAD-12 cotton; 2240 g ae/ha, 12 DAA): 3.3 a %
Percentage Control of Target Weeds (AMASS): 77%
Percentage Control of Target Weeds (AMAPA): 81%

O=C(O)COc1ccc(Cl)cc1Cl [2,4-D]
Percentage Control of Target Weeds (ACNHI): 99%
Percentage Control of Target Weeds (SIDSP): 89%
Percentage Control of Target Weeds (RCHSC): 97%
Percentage Control of Target Weeds (AMARE): 93%
Percentage Control of Target Weeds (SEBEX): 88%
Percentage Control of Target Weeds (ACCOS): 90%
Percentage Control of Target Weeds (IAQTA): 99%
Percentage Control of Target Weeds (IPOSS): 99%
Percentage Control of Target Weeds (SOLNI): 93%
Percentage Control of Target Weeds (CASOB): 98%
Percentage Control of Target Weeds (IPOHG): 100%
Mean Injury 1 DAA, Injury (%) (AAD-1 cotton [1]; 840 g ae/ha post-emergence): 7.4%
Mean Injury 1 DAA, Injury (%) (AAD-1 cotton [1]; 1120 g ae/ha post-emergence): 13.0%
Mean Injury (%) (AAD-1 cotton [2]; 560 g ae/ha, 0 DAA): 6.7 ab %
Mean Injury (%) (AAD-1 cotton [2]; 560 g ae/ha, 1 DAA): 6.7 b %
Mean Injury (%) (AAD-1 cotton [2]; 560 g ae/ha, 2 DAA): 4.0 bc %
Mean Injury (%) (AAD-1 cotton [2]; 560 g ae/ha, 19 DAA): 1.7 a %
Mean Injury (%) (AAD-1 cotton [2]; 560 g ae/ha, 45 DAA): 3.3 a %
Mean Injury (%) (AAD-1 cotton [2]; 1120 g ae/ha, 0 DAA): 23.3 c %
Mean Injury (%) (AAD-1 cotton [2]; 1120 g ae/ha, 1 DAA): 14.0 c %
Mean Injury (%) (AAD-1 cotton [2]; 1120 g ae/ha, 2 DAA): 4.7 c %
Mean Injury (%) (AAD-1 cotton [2]; 1120 g ae/ha, 19 DAA): 5.0 b %
Mean Injury (%) (AAD-1 cotton [2]; 1120 g ae/ha, 45 DAA): 2.3 a %
Mean Injury (%) (AAD-12 cotton; 1120 g ae/ha, 0 DAA): 0.5 a %
Mean Injury (%) (AAD-12 cotton; 1120 g ae/ha, 1 DAA): 2.3 ab %
Mean Injury (%) (AAD-12 cotton; 1120 g ae/ha, 2 DAA): 3.0 a %
Mean Injury (%) (AAD-12 cotton; 1120 g ae/ha, 4 DAA): 3.0 b %
Mean Injury (%) (AAD-12 cotton; 1120 g ae/ha, 12 DAA): 3.0 a %
Mean Injury (%) (AAD-12 cotton; 2240 g ae/ha, 0 DAA): 1.3 a %
Mean Injury (%) (AAD-12 cotton; 2240 g ae/ha, 1 DAA): 4.3 a %
Mean Injury (%) (AAD-12 cotton; 2240 g ae/ha, 2 DAA): 3.8 a %
Mean Injury (%) (AAD-12 cotton; 2240 g ae/ha, 4 DAA): 6.8 a %
Mean Injury (%) (AAD-12 cotton; 2240 g ae/ha, 12 DAA): 3.0 a %
Percentage Control of Target Weeds (AMASS): 92%
Percentage Control of Target Weeds (AMAPA): 89%
